# ± gives the expanded uncertainty stated by the source.
# Tests used:
# [1] = activity coefficient (dimensionless); of the first substance listed, at infinite dilution; xn = mol fraction of the nth substance listed; conditions: 101.33 kPa, Liquid, Chromatography, x1 = 0
# [2] = 101.33 kPa, Liquid, Vibrating tube method
compound,measurement,setting,value
"Cc1ccc(C)cc1 [1,4-dimethylbenzene] + C[n+]1ccn(CCCCS(=O)(=O)O)c1.O=S(=O)([N-]S(=O)(=O)C(F)(F)F)C(F)(F)F",activity coefficient,[1]; 323.15 K,5.11 ± 0.35
same,activity coefficient,[1]; 333.15 K,5.47 ± 0.37
same,activity coefficient,[1]; 343.15 K,5.55 ± 0.38
CCC(C)=O [butanone] + C[n+]1ccn(CCCCS(=O)(=O)O)c1.O=S(=O)([O-])C(F)(F)F,activity coefficient,[1]; 323.15 K,1.06 ± 0.07
same,activity coefficient,[1]; 333.15 K,1 ± 0.06
same,activity coefficient,[1]; 343.15 K,0.96 ± 0.06
ClC(Cl)(Cl)Cl [tetrachloromethane] + C[n+]1ccn(CCCCS(=O)(=O)O)c1.O=S(=O)([N-]S(=O)(=O)C(F)(F)F)C(F)(F)F,activity coefficient,[1]; 323.15 K,7.71 ± 0.53
same,activity coefficient,[1]; 333.15 K,7.99 ± 0.54
same,activity coefficient,[1]; 343.15 K,8.1 ± 0.6
ClCCl [dichloromethane] + C[n+]1ccn(CCCCS(=O)(=O)O)c1.O=S(=O)([O-])C(F)(F)F,activity coefficient,[1]; 323.15 K,1.3 ± 0.08
same,activity coefficient,[1]; 333.15 K,1.46 ± 0.1
same,activity coefficient,[1]; 343.15 K,1.61 ± 0.11
C[N+](=O)[O-] [nitromethane] + C[n+]1ccn(CCCCS(=O)(=O)O)c1.O=S(=O)([O-])C(F)(F)F,activity coefficient,[1]; 323.15 K,0.72 ± 0.05
same,activity coefficient,[1]; 333.15 K,0.71 ± 0.05
same,activity coefficient,[1]; 343.15 K,0.71 ± 0.05
CCCC(C)=O [pentan-2-one] + C[n+]1ccn(CCCCS(=O)(=O)O)c1.O=S(=O)([O-])C(F)(F)F,activity coefficient,[1]; 323.15 K,2.11 ± 0.14
same,activity coefficient,[1]; 333.15 K,2.14 ± 0.15
same,activity coefficient,[1]; 343.15 K,2.19 ± 0.15
"Cc1cccc(C)c1 [1,3-dimethylbenzene] + C[n+]1ccn(CCCCS(=O)(=O)O)c1.O=S(=O)([O-])O",activity coefficient,[1]; 323.15 K,62.8 ± 4.3
same,activity coefficient,[1]; 333.15 K,55.4 ± 3.8
same,activity coefficient,[1]; 343.15 K,54.5 ± 3.7
C[n+]1ccn(CCCCS(=O)(=O)O)c1.O=S(=O)([O-])O [1-methyl-3-(4-sulfobutyl)-imidazolium hydrogensulfate],mass density,[2]; 298.15 K,1437.7 ± 1.9 kg/m3
same,mass density,[2]; 299.45 K,1436.9 ± 1.9 kg/m3
same,mass density,[2]; 300.75 K,1436.3 ± 1.9 kg/m3
same,mass density,[2]; 302.15 K,1435.4 ± 1.9 kg/m3
same,mass density,[2]; 303.45 K,1434.8 ± 1.9 kg/m3
same,mass density,[2]; 304.75 K,1434 ± 2 kg/m3
same,mass density,[2]; 305.85 K,1433.3 ± 1.9 kg/m3
same,mass density,[2]; 307.15 K,1432.4 ± 1.9 kg/m3
same,mass density,[2]; 308.65 K,1431.7 ± 1.9 kg/m3
same,mass density,[2]; 310.35 K,1430.8 ± 1.9 kg/m3
same,mass density,[2]; 311.75 K,1430 ± 2 kg/m3
same,mass density,[2]; 313.05 K,1429.3 ± 1.9 kg/m3
same,mass density,[2]; 314.45 K,1428.5 ± 1.9 kg/m3
same,mass density,[2]; 315.85 K,1427.8 ± 1.9 kg/m3
same,mass density,[2]; 317.25 K,1426.9 ± 1.8 kg/m3
same,mass density,[2]; 318.75 K,1426.4 ± 1.8 kg/m3
same,mass density,[2]; 320.05 K,1425.8 ± 1.8 kg/m3
same,mass density,[2]; 321.45 K,1424.7 ± 1.8 kg/m3
same,mass density,[2]; 322.85 K,1423.9 ± 1.8 kg/m3
same,mass density,[2]; 324.65 K,1423.2 ± 1.8 kg/m3
same,mass density,[2]; 326.65 K,1422.1 ± 1.8 kg/m3
same,mass density,[2]; 328.45 K,1421.2 ± 1.8 kg/m3
same,mass density,[2]; 338.55 K,1414.5 ± 1.8 kg/m3
same,mass density,[2]; 343.5 K,1411.7 ± 1.8 kg/m3
C[n+]1ccn(CCCCS(=O)(=O)O)c1.O=S(=O)([O-])C(F)(F)F,mass density,[2]; 298.15 K,1478.4 ± 2 kg/m3
same,mass density,[2]; 299.45 K,1478 ± 2 kg/m3
same,mass density,[2]; 300.75 K,1477 ± 2 kg/m3
same,mass density,[2]; 302.15 K,1476.1 ± 2 kg/m3
same,mass density,[2]; 303.45 K,1475.3 ± 2 kg/m3
same,mass density,[2]; 304.75 K,1474.7 ± 2 kg/m3
same,mass density,[2]; 305.85 K,1473.8 ± 2 kg/m3
same,mass density,[2]; 307.15 K,1472.8 ± 2 kg/m3
same,mass density,[2]; 308.65 K,1472 ± 2 kg/m3
same,mass density,[2]; 310.35 K,1470.9 ± 2 kg/m3
same,mass density,[2]; 311.75 K,1470.1 ± 2 kg/m3
same,mass density,[2]; 313.05 K,1469.3 ± 2 kg/m3
same,mass density,[2]; 314.45 K,1468.2 ± 2 kg/m3
same,mass density,[2]; 315.85 K,1467.3 ± 2 kg/m3
same,mass density,[2]; 317.25 K,1466.3 ± 2 kg/m3
same,mass density,[2]; 318.75 K,1465.6 ± 2 kg/m3
same,mass density,[2]; 320.05 K,1464.8 ± 2 kg/m3
same,mass density,[2]; 321.45 K,1463.7 ± 2 kg/m3
same,mass density,[2]; 322.85 K,1462.7 ± 1.9 kg/m3
same,mass density,[2]; 324.65 K,1461.5 ± 1.9 kg/m3
same,mass density,[2]; 326.65 K,1461.3 ± 1.9 kg/m3
same,mass density,[2]; 328.45 K,1460.2 ± 1.9 kg/m3
same,mass density,[2]; 338.55 K,1453.7 ± 1.9 kg/m3
same,mass density,[2]; 343.5 K,1450.6 ± 1.9 kg/m3
CC(C)O [propan-2-ol] + C[n+]1ccn(CCCCS(=O)(=O)O)c1.O=S(=O)([N-]S(=O)(=O)C(F)(F)F)C(F)(F)F,activity coefficient,[1]; 333.15 K,0.09 ± 0.03
same,activity coefficient,[1]; 343.15 K,0.11 ± 0.03
CCC[N+](=O)[O-] [1-nitropropane] + C[n+]1ccn(CCCCS(=O)(=O)O)c1.O=S(=O)([O-])C(F)(F)F,activity coefficient,[1]; 323.15 K,1.84 ± 0.12
same,activity coefficient,[1]; 333.15 K,1.8 ± 0.12
same,activity coefficient,[1]; 343.15 K,1.77 ± 0.12
CCCO [propan-1-ol] + C[n+]1ccn(CCCCS(=O)(=O)O)c1.O=S(=O)([N-]S(=O)(=O)C(F)(F)F)C(F)(F)F,activity coefficient,[1]; 333.15 K,0.13 ± 0.03
same,activity coefficient,[1]; 343.15 K,0.16 ± 0.03
CCCCCCCCCCC [undecane] + C[n+]1ccn(CCCCS(=O)(=O)O)c1.O=S(=O)([O-])O,activity coefficient,[1]; 323.15 K,1490 ± 100
same,activity coefficient,[1]; 333.15 K,1370 ± 94
same,activity coefficient,[1]; 343.15 K,1310 ± 90
ClCCl [dichloromethane] + C[n+]1ccn(CCCCS(=O)(=O)O)c1.O=S(=O)([O-])O,activity coefficient,[1]; 323.15 K,3.5 ± 0.24
same,activity coefficient,[1]; 333.15 K,3.48 ± 0.24
same,activity coefficient,[1]; 343.15 K,3.37 ± 0.23
CCCCCCCCCCCC [dodecane] + C[n+]1ccn(CCCCS(=O)(=O)O)c1.O=S(=O)([O-])C(F)(F)F,activity coefficient,[1]; 323.15 K,1490 ± 100
same,activity coefficient,[1]; 333.15 K,1020 ± 70
same,activity coefficient,[1]; 343.15 K,997 ± 69
CCC[N+](=O)[O-] [1-nitropropane] + C[n+]1ccn(CCCCS(=O)(=O)O)c1.O=S(=O)([O-])O,activity coefficient,[1]; 323.15 K,7.05 ± 0.48
same,activity coefficient,[1]; 333.15 K,6.92 ± 0.47
same,activity coefficient,[1]; 343.15 K,6.82 ± 0.46
CCc1ccccc1 [ethylbenzene] + C[n+]1ccn(CCCCS(=O)(=O)O)c1.O=S(=O)([N-]S(=O)(=O)C(F)(F)F)C(F)(F)F,activity coefficient,[1]; 323.15 K,5.37 ± 0.37
same,activity coefficient,[1]; 333.15 K,5.79 ± 0.39
same,activity coefficient,[1]; 343.15 K,5.8 ± 0.4
C[n+]1ccn(CCCCS(=O)(=O)O)c1.O=S(=O)([N-]S(=O)(=O)C(F)(F)F)C(F)(F)F,mass density,[2]; 298.15 K,1577 ± 2 kg/m3
same,mass density,[2]; 299.45 K,1575.8 ± 2.3 kg/m3
same,mass density,[2]; 300.75 K,1574.9 ± 2.3 kg/m3
same,mass density,[2]; 302.15 K,1573.7 ± 2.3 kg/m3
same,mass density,[2]; 303.45 K,1572.7 ± 2.3 kg/m3
same,mass density,[2]; 304.75 K,1571.5 ± 2.3 kg/m3
same,mass density,[2]; 305.85 K,1570.5 ± 2.3 kg/m3
same,mass density,[2]; 307.15 K,1569.2 ± 2.3 kg/m3
same,mass density,[2]; 308.65 K,1568 ± 2 kg/m3
same,mass density,[2]; 310.35 K,1566.7 ± 2.2 kg/m3
same,mass density,[2]; 311.75 K,1565.5 ± 2.2 kg/m3
same,mass density,[2]; 313.05 K,1564.3 ± 2.2 kg/m3
same,mass density,[2]; 314.45 K,1563.2 ± 2.2 kg/m3
same,mass density,[2]; 315.85 K,1562 ± 2 kg/m3
same,mass density,[2]; 317.25 K,1560.9 ± 2.2 kg/m3
same,mass density,[2]; 318.75 K,1559.8 ± 2.2 kg/m3
same,mass density,[2]; 320.05 K,1558.8 ± 2.2 kg/m3
same,mass density,[2]; 321.45 K,1557.7 ± 2.2 kg/m3
same,mass density,[2]; 322.85 K,1556.4 ± 2.2 kg/m3
same,mass density,[2]; 324.65 K,1554.8 ± 2.2 kg/m3
same,mass density,[2]; 326.65 K,1553.4 ± 2.2 kg/m3
same,mass density,[2]; 328.45 K,1551.8 ± 2.2 kg/m3
same,mass density,[2]; 338.55 K,1543.9 ± 2.2 kg/m3
same,mass density,[2]; 343.5 K,1539.7 ± 2.2 kg/m3
"Cc1ccccc1C [1,2-dimethylbenzene] + C[n+]1ccn(CCCCS(=O)(=O)O)c1.O=S(=O)([O-])C(F)(F)F",activity coefficient,[1]; 323.15 K,8.26 ± 0.56
same,activity coefficient,[1]; 333.15 K,8.21 ± 0.56
same,activity coefficient,[1]; 343.15 K,7.97 ± 0.54
"Cc1ccccc1C [1,2-dimethylbenzene] + C[n+]1ccn(CCCCS(=O)(=O)O)c1.O=S(=O)([N-]S(=O)(=O)C(F)(F)F)C(F)(F)F",activity coefficient,[1]; 323.15 K,4.39 ± 0.3
same,activity coefficient,[1]; 333.15 K,4.64 ± 0.32
same,activity coefficient,[1]; 343.15 K,4.8 ± 0.3
CC#N [acetonitrile] + C[n+]1ccn(CCCCS(=O)(=O)O)c1.O=S(=O)([O-])O,activity coefficient,[1]; 323.15 K,1.74 ± 0.12
same,activity coefficient,[1]; 333.15 K,1.73 ± 0.12
same,activity coefficient,[1]; 343.15 K,1.73 ± 0.12
C[N+](=O)[O-] [nitromethane] + C[n+]1ccn(CCCCS(=O)(=O)O)c1.O=S(=O)([O-])O,activity coefficient,[1]; 323.15 K,1.58 ± 0.1
same,activity coefficient,[1]; 333.15 K,1.59 ± 0.11
same,activity coefficient,[1]; 343.15 K,1.6 ± 0.11
CCCCCCCCCCCCC [tridecane] + C[n+]1ccn(CCCCS(=O)(=O)O)c1.O=S(=O)([O-])C(F)(F)F,activity coefficient,[1]; 323.15 K,1940 ± 130
same,activity coefficient,[1]; 333.15 K,1550 ± 110
same,activity coefficient,[1]; 343.15 K,1220 ± 84
CCOCC [diethyl ether] + C[n+]1ccn(CCCCS(=O)(=O)O)c1.O=S(=O)([O-])C(F)(F)F,activity coefficient,[1]; 323.15 K,4.51 ± 0.31
same,activity coefficient,[1]; 333.15 K,4.36 ± 0.3
same,activity coefficient,[1]; 343.15 K,4.21 ± 0.29
CCc1ccccc1 [ethylbenzene] + C[n+]1ccn(CCCCS(=O)(=O)O)c1.O=S(=O)([O-])C(F)(F)F,activity coefficient,[1]; 323.15 K,10.8 ± 0.74
same,activity coefficient,[1]; 333.15 K,10.3 ± 0.7
same,activity coefficient,[1]; 343.15 K,10.3 ± 0.7
"Cc1cccc(C)c1 [1,3-dimethylbenzene] + C[n+]1ccn(CCCCS(=O)(=O)O)c1.O=S(=O)([N-]S(=O)(=O)C(F)(F)F)C(F)(F)F",activity coefficient,[1]; 323.15 K,5.19 ± 0.35
same,activity coefficient,[1]; 333.15 K,5.49 ± 0.37
same,activity coefficient,[1]; 343.15 K,5.57 ± 0.38
Cc1ccccc1 [toluene] + C[n+]1ccn(CCCCS(=O)(=O)O)c1.O=S(=O)([N-]S(=O)(=O)C(F)(F)F)C(F)(F)F,activity coefficient,[1]; 323.15 K,3.1 ± 0.2
same,activity coefficient,[1]; 333.15 K,3.28 ± 0.22
same,activity coefficient,[1]; 343.15 K,3.31 ± 0.23

# — the NIST ThermoML archive (doi:10.1016/j.fluid.2014.06.021)
